Results taken from patent publication US9346799B2, “Useful combinations of monobactam antibiotics with beta-lactamase inhibitors” (Basilea Pharmaceutica AG, priority 2005, dated 2016).
One block for each compound: values may come before it.

What was measured:
Assay in all cases: MIC by broth microdilution (NCCLS M7-A5)
[1] = system: Pseudomonas aeruginosa 1973E
[2] = system: Klebsiella pneumoniae CF104
[3] = system: Serratia marcescens S6
[4] = system: Acinetobacter sp. J2; conditions: Acinetobacter baumannii J2
[5] = system: Pseudomonas aeruginosa MK1184
[6] = system: Enterobacter cloacae P99
[7] = system: Stenotrophomonas malthophilia 1AC736; conditions: Stenotrophomonas maltophilia 1AC736
[8] = MIC of antibiotic 1 with the labelled bridged monobactam of formula II and clavulanate, 4 mg/L each
[9] = + 102 + clavulanate, 4 mg/L each
[10] = + 324 + clavulanate, 4 mg/L each
[11] = + 206 + clavulanate, 4 mg/L each

Structure (SMILES): Nc1nc(CC(=O)N2CC[C@@H]3[C@H]2C(=O)N3S(=O)(=O)O)cs1 [Compound 401]
MIC of antibiotic at fixed inhibitor concentration (4 mg/L) [1, 8]: 3 mg/L
MIC of antibiotic at fixed inhibitor concentration (4 mg/L) [2, 8]: 35 mg/L
MIC of antibiotic at fixed inhibitor concentration (4 mg/L) [3, 8]: 3.125 mg/L

Structure (SMILES): NC(=O)OCC1C(NC(=O)C(=NOCc2cc(=O)c(O)cn2O)c2csc(N)n2)C(=O)N1OCC(=O)O (centres unmarked) [Compound 41]
MIC of antibiotic [4, 9]: 16 mg/L
MIC of antibiotic ([4]; antibiotic alone): 16 mg/L
MIC of antibiotic [5, 9]: 4 mg/L
MIC of antibiotic ([5]; antibiotic alone): 4 mg/L
MIC of antibiotic [1, 9]: 4 mg/L
MIC of antibiotic ([1]; antibiotic alone): 4 mg/L
MIC of antibiotic [6, 9]: 16 mg/L
MIC of antibiotic ([6]; antibiotic alone): >32 mg/L
MIC of antibiotic [2, 9]: 0.5 mg/L
MIC of antibiotic ([2]; antibiotic alone): >32 mg/L
MIC of antibiotic [3, 9]: 0.5 mg/L
MIC of antibiotic ([3]; antibiotic alone): 1 mg/L
MIC of antibiotic [7, 9]: 2 mg/L
MIC of antibiotic ([7]; antibiotic alone): 1 mg/L

Structure (SMILES): CC1(C)C(NC(=O)C(=NOCc2cc(=O)c(O)cn2O)c2csc(N)n2)C(=O)N1OCC(=O)O (centres unmarked) [Compound 33]
MIC of antibiotic [4, 9]: >32 mg/L
MIC of antibiotic [4, 10]: 16 mg/L
MIC of antibiotic ([4]; antibiotic alone): 8 mg/L
MIC of antibiotic [5, 9]: 32 mg/L
MIC of antibiotic [5, 10]: 16 mg/L
MIC of antibiotic ([5]; antibiotic alone): 32 mg/L
MIC of antibiotic [1, 9]: 32 mg/L
MIC of antibiotic [1, 10]: 16 mg/L
MIC of antibiotic ([1]; antibiotic alone): 16 mg/L
MIC of antibiotic [6, 9]: 32 mg/L
MIC of antibiotic [6, 10]: 4 mg/L
MIC of antibiotic ([6]; antibiotic alone): 16 mg/L
MIC of antibiotic [2, 9]: 2 mg/L
MIC of antibiotic [2, 10]: 0.5 mg/L
MIC of antibiotic ([2]; antibiotic alone): 0.5 mg/L
MIC of antibiotic [3, 9]: 0.5 mg/L
MIC of antibiotic [3, 10]: 0.25 mg/L
MIC of antibiotic ([3]; antibiotic alone): 0.25 mg/L
MIC of antibiotic [7, 9]: 2 mg/L
MIC of antibiotic [7, 10]: 2 mg/L
MIC of antibiotic ([7]; antibiotic alone): 2 mg/L

Structure (SMILES): CC1C(NC(=O)C(=NOCc2cc(=O)c(O)cn2O)c2cccc(N)n2)C(=O)N1S(=O)(=O)O (centres unmarked) [Compound 20]
MIC of antibiotic [4, 9]: >32 mg/L
MIC of antibiotic [4, 11]: >32 mg/L
MIC of antibiotic ([4]; + 501 4 mg/L): <0.06 mg/L
MIC of antibiotic ([4]; + clavulanate 4 mg/L): >32 mg/L
MIC of antibiotic ([4]; antibiotic alone): >32 mg/L
MIC of antibiotic [5, 9]: 8 mg/L
MIC of antibiotic [5, 11]: >32 mg/L
MIC of antibiotic ([5]; + 501 4 mg/L): >32 mg/L
MIC of antibiotic ([5]; + clavulanate 4 mg/L): >32 mg/L
MIC of antibiotic ([5]; antibiotic alone): >32 mg/L
MIC of antibiotic [1, 9]: 32 mg/L
MIC of antibiotic [1, 11]: 16 mg/L
MIC of antibiotic ([1]; + 501 4 mg/L): 16 mg/L
MIC of antibiotic ([1]; + clavulanate 4 mg/L): 16 mg/L
MIC of antibiotic ([1]; antibiotic alone): 16 mg/L
MIC of antibiotic [6, 9]: 16 mg/L
MIC of antibiotic [6, 11]: 16 mg/L
MIC of antibiotic ([6]; + 501 4 mg/L): >32 mg/L
MIC of antibiotic ([6]; + clavulanate 4 mg/L): >32 mg/L
MIC of antibiotic ([6]; antibiotic alone): >32 mg/L
MIC of antibiotic [2, 9]: 2 mg/L
MIC of antibiotic [2, 11]: 4 mg/L
MIC of antibiotic ([2]; + 501 4 mg/L): 16 mg/L
MIC of antibiotic ([2]; + clavulanate 4 mg/L): 32 mg/L
MIC of antibiotic ([2]; antibiotic alone): >32 mg/L
MIC of antibiotic [3, 9]: 0.5 mg/L
MIC of antibiotic [3, 11]: 0.5 mg/L
MIC of antibiotic ([3]; + 501 4 mg/L): 2 mg/L
MIC of antibiotic ([3]; + clavulanate 4 mg/L): 2 mg/L
MIC of antibiotic ([3]; antibiotic alone): 4 mg/L
MIC of antibiotic [7, 9]: 0.25 mg/L
MIC of antibiotic [7, 11]: 0.5 mg/L
MIC of antibiotic ([7]; + 501 4 mg/L): 0.25 mg/L
MIC of antibiotic ([7]; + clavulanate 4 mg/L): 0.25 mg/L
MIC of antibiotic ([7]; antibiotic alone): 4 mg/L

The remaining lines, values ahead:

MIC of antibiotic [4, 9]: >32 mg/L
MIC of antibiotic [4, 10]: >32 mg/L
MIC of antibiotic ([4]; antibiotic alone): >32 mg/L
MIC of antibiotic [5, 9]: 2 mg/L
MIC of antibiotic [5, 10]: 4 mg/L
MIC of antibiotic ([5]; antibiotic alone): 4 mg/L
MIC of antibiotic [1, 9]: 4 mg/L
MIC of antibiotic [1, 10]: 8 mg/L
MIC of antibiotic ([1]; antibiotic alone): 8 mg/L
MIC of antibiotic [6, 9]: 16 mg/L
MIC of antibiotic [6, 10]: 32 mg/L
MIC of antibiotic ([6]; antibiotic alone): >32 mg/L
MIC of antibiotic [2, 9]: 4 mg/L
MIC of antibiotic [2, 10]: 2 mg/L
MIC of antibiotic ([2]; antibiotic alone): >32 mg/L
MIC of antibiotic [3, 9]: 2 mg/L
MIC of antibiotic [3, 10]: 2 mg/L
MIC of antibiotic ([3]; antibiotic alone): 2 mg/L
MIC of antibiotic [7, 9]: 1 mg/L
MIC of antibiotic [7, 10]: 1 mg/L
MIC of antibiotic ([7]; antibiotic alone): 1 mg/L
Structure (SMILES): NC(=O)OCC1C(NC(=O)C(=NOCc2cc(=O)c(O)cn2O)c2nc(N)sc2Cl)C(=O)N1OS(=O)(=O)O (centres unmarked) [Compound 47]

MIC of antibiotic [4, 9]: 16 mg/L
MIC of antibiotic ([4]; antibiotic alone): >32 mg/L
MIC of antibiotic [5, 9]: 16 mg/L
MIC of antibiotic ([5]; antibiotic alone): >32 mg/L
MIC of antibiotic [1, 9]: 16 mg/L
MIC of antibiotic ([1]; antibiotic alone): >32 mg/L
MIC of antibiotic [6, 9]: >32 mg/L
MIC of antibiotic ([6]; antibiotic alone): >32 mg/L
MIC of antibiotic [2, 9]: 32 mg/L
MIC of antibiotic ([2]; antibiotic alone): >32 mg/L
MIC of antibiotic [3, 9]: >32 mg/L
MIC of antibiotic ([3]; antibiotic alone): >32 mg/L
MIC of antibiotic [7, 9]: 2 mg/L
MIC of antibiotic ([7]; antibiotic alone): >32 mg/L
Structure (SMILES): CC1C(NC(=O)C(=NOCc2cc(=O)c(O)cn2O)c2noc(N)n2)C(=O)N1S(=O)(=O)O (centres unmarked) [Compound 16]

MIC of antibiotic [4, 9]: >32 mg/L
MIC of antibiotic ([4]; + 102 + sulbactam, 4 mg/L each): 2 mg/L
MIC of antibiotic ([4]; + 323 + sulbactam, 4 mg/L each): 2 mg/L
MIC of antibiotic ([4]; antibiotic alone): >32 mg/L
MIC of antibiotic [5, 9]: 8 mg/L
MIC of antibiotic ([5]; + 102 + sulbactam, 4 mg/L each): 4 mg/L
MIC of antibiotic ([5]; + 323 + sulbactam, 4 mg/L each): 8 mg/L
MIC of antibiotic ([5]; antibiotic alone): >32 mg/L
MIC of antibiotic [1, 9]: 8 mg/L
MIC of antibiotic ([1]; + 102 + sulbactam, 4 mg/L each): 8 mg/L
MIC of antibiotic ([1]; + 323 + sulbactam, 4 mg/L each): 8 mg/L
MIC of antibiotic ([1]; antibiotic alone): 4 mg/L
MIC of antibiotic [6, 9]: 0.25 mg/L
MIC of antibiotic ([6]; + 102 + sulbactam, 4 mg/L each): 8 mg/L
MIC of antibiotic ([6]; + 323 + sulbactam, 4 mg/L each): 8 mg/L
MIC of antibiotic ([6]; antibiotic alone): >32 mg/L
MIC of antibiotic [2, 9]: 0.5 mg/L
MIC of antibiotic ([2]; + 102 + sulbactam, 4 mg/L each): 2 mg/L
MIC of antibiotic ([2]; + 323 + sulbactam, 4 mg/L each): 2 mg/L
MIC of antibiotic ([2]; antibiotic alone): >32 mg/L
MIC of antibiotic [3, 9]: 1 mg/L
MIC of antibiotic ([3]; + 102 + sulbactam, 4 mg/L each): 8 mg/L
MIC of antibiotic ([3]; + 323 + sulbactam, 4 mg/L each): 8 mg/L
MIC of antibiotic ([3]; antibiotic alone): 32 mg/L
MIC of antibiotic [7, 9]: 0.5 mg/L
MIC of antibiotic ([7]; + 102 + sulbactam, 4 mg/L each): 1 mg/L
MIC of antibiotic ([7]; + 323 + sulbactam, 4 mg/L each): 1 mg/L
MIC of antibiotic ([7]; antibiotic alone): 1 mg/L
Structure (SMILES): C[C@H]1[C@H](NC(=O)/C(=N\OCc2cc(=O)c(O)cn2O)c2nc(N)sc2Cl)C(=O)N1OS(=O)(=O)O [Compound 29, (3S,4S)-3-{(2Z)-2-(2-amino-5-chloro(1,3-thiazol-4-yl))-3-[(1,5-dihydroxy-4-oxo(2-hydropyridyl))methoxy]-3-azaprop-2-enoylamino}-4-methyl-2-oxoazetidinyl hydroxysulfonate]

MIC of antibiotic [4, 9]: 4 mg/L
MIC of antibiotic ([4]; antibiotic alone): >32 mg/L
MIC of antibiotic [5, 9]: 4 mg/L
MIC of antibiotic ([5]; antibiotic alone): 8 mg/L
MIC of antibiotic [1, 9]: 4 mg/L
MIC of antibiotic ([1]; antibiotic alone): 4 mg/L
MIC of antibiotic [6, 9]: 8 mg/L
MIC of antibiotic ([6]; antibiotic alone): >32 mg/L
MIC of antibiotic [2, 9]: 0.25 mg/L
MIC of antibiotic ([2]; antibiotic alone): >32 mg/L
MIC of antibiotic [3, 9]: 0.25 mg/L
MIC of antibiotic ([3]; antibiotic alone): 0.13 mg/L
MIC of antibiotic [7, 9]: 1 mg/L
MIC of antibiotic ([7]; antibiotic alone): 0.5 mg/L
Structure (SMILES): C[C@H]1[C@H](NC(=O)/C(=N\OCc2cc(=O)c(O)cn2O)c2csc(N)n2)C(=O)N1OCC(=O)O [Compound 22, 2-((3S,4S)-3-{(2Z)-2-(2-amino(1,3-thiazol-4-yl))-3-[(1,5-dihydroxy-4-oxo(2-hydropyridyl))methoxy]-3-azaprop-2-enoylamino}-4-methyl-2-oxoazetidinyloxy)acetic acid]

MIC of antibiotic [4, 9]: >32 mg/L
MIC of antibiotic ([4]; antibiotic alone): >32 mg/L
MIC of antibiotic [5, 9]: 32 mg/L
MIC of antibiotic ([5]; antibiotic alone): >32 mg/L
MIC of antibiotic [1, 9]: 16 mg/L
MIC of antibiotic ([1]; antibiotic alone): >32 mg/L
MIC of antibiotic [6, 9]: 32 mg/L
MIC of antibiotic ([6]; antibiotic alone): >32 mg/L
MIC of antibiotic [2, 9]: 2 mg/L
MIC of antibiotic ([2]; antibiotic alone): >32 mg/L
MIC of antibiotic [3, 9]: 16 mg/L
MIC of antibiotic ([3]; antibiotic alone): 8 mg/L
MIC of antibiotic [7, 9]: 8 mg/L
MIC of antibiotic ([7]; antibiotic alone): 8 mg/L
Structure (SMILES): CC1C(NC(=O)C(=NOCc2cc(=O)c(O)cn2O)c2csc(NC=O)n2)C(=O)N1S(=O)(=O)O (centres unmarked) [Compound 28]
